In US20230278984A1 (Global Blood Therapeutics, Inc., priority 2020, published 2023):

Target: T1, Human pyruvate kinase R (PKR) (Homo sapiens, UniProt P30613)
T1 construct: Human pyruvate kinase R (PKR), residues 14-574; 6x-His (N, cleaved yes); 8x-Arg (N, cleaved yes); SUMO (N, cleaved yes); host or cells: E. coli
Assay: Biochemical assay for activation of pyruvate kinase R (Kinase-Glo luminescence measurement of ATP generation)
Conditions: for AC50: PKR biochemical assay, 0.1 nM PKR, 0.3 mM ADP, 2 mM FBP, 0.1 mM PEP; for Emax: maximal activation level relative to the activation level achieved by the literature compound AG-348 @ 10 μM
Description: Human pyruvate kinase R (PKR), residues 14-574, and human pyruvate kinase M2, residues 1-531, were cloned into expression plasmids and obtained from ATUM Bio (Newark, Calif.). Proteins were translated as fusions with 6×-His, 8×-Arg, and SUMO at the N-terminus. A third construct of human PKR was truncated, residues 50-574, and similarly cloned for use in crystallography experiments. All proteins were cloned, expressed in E. coli, and purified using similar protocols. Cells were grown at 30° C. in Luria-Bertani broth supplemented with 0.4% glucose to OD600=0.8 and induced with 0.4 mM IPTG at 16° C. for 18 hours. Cells were harvested by centrifugation, resuspended in 50 mM potassium phosphate pH 8.0, 500 mM NaCl, 25 mM imidazole pH 8.0, and 3 mM (3-mercaptoethanol. Cells were lysed using a LM20 microfluidizer from Microfluidics (Westwood, Mass.). The crude lysate was immediately supplemented with 0.2 mM phenylmethylsulfonyl fluoride (PMSF) and centrifuged at 20,000 g for 20 minutes. The soluble fraction was subsequently incubated with 2 mL Ni-NTA (GE Healthcare) per 1,000 ODs for 1 hour at 4° C. Following incubation with the Ni-NTA resin, lysate was removed by pelleting resin at 2,500 g for 3 minutes and washed 3 times with 9 bed volumes of 50 mM potassium phosphate pH 8.0, 500 mM NaCl, 25 mM imidazole, and 3 mM 3-mercaptoethanol. Following the batch wash Ni-NTA resin was loaded onto a gravity column and His-tagged protein was eluted with 6 bed volumes of 10 mM Tris/HCl pH 8.0, 200 mM NaCl, 500 mM imidazole, and 3 mM (3-mercaptoethanol. Eluted protein was dialyzed overnight against 10 mM Tris/HCl pH 8.0, 200 mM NaCl, and 1 mM DTT and the 6×-His-8×-Arg-SUMO-tag was cleaved using a 20:1 molar ratio of protein:3C protease. The protein was purified by anion exchange chromatography on a HiTrapQ or MonoQ 10/100 GL column (GE Healthcare) via a linear NaCl gradient and twice by size exclusion chromatography using a Superdex S200 26/60 column (GE Healthcare) run in 10 mM Tris/HCl pH 8.0, 200 mM NaCl, 10 mM MgCl2, 1 mM DTT. Proteins were concentrated to −12 mg/mL for crystallization and flash frozen for storage.
Biochemical Assay for Activation of Pyruvate Kinase R
Activation of pyruvate kinase R (PKR) and pyruvate kinase M2 (PKM2) were measured using a luminescence based measurement of ATP generation and the Kinase-Glo luminescent kinase reagent kit.

T1 sequence (P30613 14-574): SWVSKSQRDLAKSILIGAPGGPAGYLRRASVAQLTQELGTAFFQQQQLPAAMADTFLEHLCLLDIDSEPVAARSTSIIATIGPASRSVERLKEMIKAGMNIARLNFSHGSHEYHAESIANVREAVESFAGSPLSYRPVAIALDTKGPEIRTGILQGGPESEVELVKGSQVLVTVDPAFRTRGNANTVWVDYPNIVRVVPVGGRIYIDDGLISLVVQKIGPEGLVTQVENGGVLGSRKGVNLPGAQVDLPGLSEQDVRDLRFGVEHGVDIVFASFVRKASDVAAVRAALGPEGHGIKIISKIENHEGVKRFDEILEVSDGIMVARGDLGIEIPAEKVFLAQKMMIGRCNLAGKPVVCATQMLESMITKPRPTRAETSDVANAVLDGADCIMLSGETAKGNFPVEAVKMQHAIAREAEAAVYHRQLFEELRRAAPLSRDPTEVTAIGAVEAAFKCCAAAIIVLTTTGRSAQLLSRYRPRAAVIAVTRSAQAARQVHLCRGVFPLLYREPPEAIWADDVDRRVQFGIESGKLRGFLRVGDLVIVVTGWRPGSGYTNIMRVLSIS

SMILES	AC50 [nM]	Emax [%]
Cc1nc(CNC(=O)N(C)Cc2ncnn2-c2ccc3cccnc3c2)n(-c2ccc(Cl)c(F)c2)n1 [Compound 54, 3-{[1-(4-chloro-3-fluorophenyl)-3-methyl-1H-1,2,4-triazol-5-yl]methyl}-1-methyl-1-{[1-(quinolin-7-yl)-1H-1,2,4-triazol-5-yl]methyl}urea]	85	71
Cc1nc(CNC(=O)NCc2ncnn2-c2ccc3c(c2)ncn3C)n(-c2ccc(Cl)c(F)c2)n1 [Compound 44, 1-{[1-(4-chloro-3-fluorophenyl)-3-methyl-1H-1,2,4-triazol-5-yl]methyl}-3-{[1-(1-methyl-1H-1,3-benzodiazol-5-yl)-1H-1,2,4-triazol-5-yl]methyl}urea]	81	94
Cc1ccc(-n2ncnc2CNC(=O)NCc2ncnn2-c2ccc(C)nc2)cn1 [Compound 74, 1,3-bis({[1-(6-methylpyridin-3-yl)-1H-1,2,4-triazol-5-yl]methyl})urea]	2800	36
O=C(NCc1ncnn1CC1CCOCC1)NCc1ncnn1-c1ccc(Cl)c(F)c1 [Compound 7, 3-{[1-(4-chloro-3-fluorophenyl)-1H-1,2,4-triazol-5-yl]methyl}-1-({1-[(oxan-4-yl)methyl]-1H-1,2,4-triazol-5-yl}methyl)urea]	44	46
CN(Cc1nnnn1-c1ccc(Cl)c(F)c1)C(=O)NCc1nnnn1-c1ccc(Cl)c(F)c1 [Compound 26, 1,3-bis({[1-(4-chloro-3-fluorophenyl)-1H-1,2,3,4-tetrazol-5-yl]methyl})-1-methylurea]	73	93
Cc1nc(CNC(=O)NCc2ncnn2CC2CCCCC2)n(-c2ccc(Cl)c(F)c2)n1 [Compound 16, 3-{[1-(4-chloro-3-fluorophenyl)-3-methyl-1H-1,2,4-triazol-5-yl]methyl}-1-{[1-(cyclohexylmethyl)-1H-1,2,4-triazol-5-yl]methyl}urea]	55	93
CCc1nc(CNC(=O)NCc2ncnn2-c2ccc3cccnc3c2)n(-c2ccc(Cl)c(F)c2)n1 [Compound 45, 1-{[1-(4-chloro-3-fluorophenyl)-3-ethyl-1H-1,2,4-triazol-5-yl]methyl}-3-{[1-(quinolin-7-yl)-1H-1,2,4-triazol-5-yl]methyl}urea]	110	80
O=C(NCc1ncnn1-c1ccc2cccnc2c1)NCc1nc(C2CC2)nn1-c1ccc(Cl)c(F)c1 [Compound 83, 1-{[1-(4-chloro-3-fluorophenyl)-3-cyclopropyl-1H-1,2,4-triazol-5-yl]methyl}-3-{[1-(quinolin-7-yl)-1H-1,2,4-triazol-5-yl]methyl}urea]	72	83
O=C(NCc1nnnn1-c1ccc(Cl)cc1)NCc1nnnn1-c1ccc(Cl)cc1 [Compound 1, 1,3-bis({[1-(4-chlorophenyl)-1H-1,2,3,4-tetrazol-5-yl]methyl})urea]	189	96
O=C(NCc1ncnn1-c1ccc(Cl)c(F)c1)N(CCO)Cc1nnnn1-c1ccc(Cl)c(F)c1 [Compound 34, 1-{[1-(4-chloro-3-fluorophenyl)-1H-1,2,3,4-tetrazol-5-yl]methyl}-3-{[1-(4-chloro-3-fluorophenyl)-1H-1,2,4-triazol-5-yl]methyl}-1-(2-hydroxyethyl)urea]	830	89
O=C(NCc1ncnn1CC1CCOCC1)NCc1ncnn1-c1ccc2cccnc2c1 [Compound 15, 3-({1-[(oxan-4-yl)methyl]-1H-1,2,4-triazol-5-yl}methyl)-1-{[1-(quinolin-7-yl)-1H-1,2,4-triazol-5-yl]methyl}urea]	310	57
Cc1cc(-n2nnnc2CNC(=O)NCc2nnnn2-c2ccc(F)c(C)c2)ccc1F [Compound 62, 1,3-bis({[1-(4-fluoro-3-methylphenyl)-1H-1,2,3,4-tetrazol-5-yl]methyl})urea]	210	66
Cc1nc(CNC(=O)NCc2ncnn2CC2CCOC(C)(C)C2)n(-c2ccc(Cl)c(F)c2)n1 (centres unmarked) [Compound 14, 3-{[1-(4-chloro-3-fluorophenyl)-3-methyl-1H-1,2,4-triazol-5-yl]methyl}-1-({1-[(2,2-dimethyloxan-4-yl)methyl]-1H-1,2,4-triazol-5-yl}methyl)urea]	1400	84

The remaining lines, values ahead:

AC50 [nM]	Emax [%]	SMILES
52	72	CCc1nc(CNC(=O)NCc2ncnn2-c2ccc(Cl)c(F)c2)n(-c2ccc3cccnc3c2)n1 [Compound 92, 1-{[1-(4-chloro-3-fluorophenyl)-1H-1,2,4-triazol-5-yl]methyl}-3-{[3-ethyl-1-(quinolin-7-yl)-1H-1,2,4-triazol-5-yl]methyl}urea]
180	99	Cc1cncc(-n2ncnc2CNC(=O)NCc2nc(C)nn2-c2ccc(Cl)c(F)c2)c1 [Compound 137, 1-{[1-(4-chloro-3-fluorophenyl)-3-methyl-1H-1,2,4-triazol-5-yl]methyl}-3-{[1-(5-methylpyridin-3-yl)-1H-1,2,4-triazol-5-yl]methyl}urea]
670	61	Cc1ccc(-n2nnnc2CNC(=O)NCc2nnnn2-c2ccc(C)cc2F)c(F)c1 [Compound 114, 1,3-bis({[1-(2-fluoro-4-methylphenyl)-1H-1,2,3,4-tetrazol-5-yl]methyl})urea]
44	129	Cc1nc(CNC(=O)NCc2nc(C)nn2-c2cnc3ccccc3c2)n(-c2ccc(Cl)c(F)c2)n1 [Compound 138, 1-{[1-(4-chloro-3-fluorophenyl)-3-methyl-1H-1,2,4-triazol-5-yl]methyl}-3-{[3-methyl-1-(quinolin-3-yl)-1H-1,2,4-triazol-5-yl]methyl}urea]
31	91	Cc1nc(CNC(=O)NCc2n[nH]c(=O)n2-c2ccc(Cl)c(F)c2)n(-c2ccc(Cl)c(F)c2)n1 [Compound 89, 1-{[1-(4-chloro-3-fluorophenyl)-3-methyl-1H-1,2,4-triazol-5-yl]methyl}-3-{[4-(4-chloro-3-fluorophenyl)-5-oxo-4,5-dihydro-1H-1,2,4-triazol-3-yl]methyl}urea]
36	67	Cc1nc(CNC(=O)NCc2ncnn2-c2ccc(Cl)c(F)c2)n(-c2ccc3cccnc3c2)n1 [Compound 85, 1-{[1-(4-chloro-3-fluorophenyl)-1H-1,2,4-triazol-5-yl]methyl}-3-{[3-methyl-1-(quinolin-7-yl)-1H-1,2,4-triazol-5-yl]methyl}urea]
35	71	Cc1nc(CNC(=O)NCc2ncnn2-c2cc(F)c3ncccc3c2)n(-c2ccc(Cl)c(F)c2)n1 [Compound 102]
300	84	COc1ccc(-n2ncnc2CNC(=O)NCc2nc(C)nn2-c2ccc(Cl)c(F)c2)nc1 [Compound 130, 1-{[1-(4-chloro-3-fluorophenyl)-3-methyl-1H-1,2,4-triazol-5-yl]methyl}-3-{[1-(5-methoxypyridin-2-yl)-1H-1,2,4-triazol-5-yl]methyl}urea]
70	68	Cc1nc(CNC(=O)NCc2ncnn2-c2ccc3cncnc3c2)n(-c2ccc(Cl)c(F)c2)n1 [Compound 88, 1-{[1-(4-chloro-3-fluorophenyl)-3-methyl-1H-1,2,4-triazol-5-yl]methyl}-3-{[1-(quinazolin-7-yl)-1H-1,2,4-triazol-5-yl]methyl}urea]
